For 32 compounds, IC50 results are on record in patent US8895585B2, “Nicotinamide derivative or salt thereof” (FUJIFILM Corporation, priority 2010, dated 2014).

This experiment has as its target T1, glutathione S-transferase (GST)-fused full-length human Syk protein (Homo sapiens, UniProt P43405).
T1 construct: (GST)-fused full-length human Syk protein; GST (glutathione S-transferase); purchased Carna Biosciences
Description: Syk enzyme assay. It counts as biochemical. The protocol: A glutathione S-transferase (GST)-fused full-length human Syk protein (Carna Biosciences), which had been generated using a Baculovirus expression system, was used in the Syk enzyme assay.
15 μl of a reaction solution (1.2 ng Syk, 20 mM HEPES, 10 mM MgCl2, 50 mM NaCl, 2 mM DTT, 0.05% BSA, pH 7.0) containing a Syk protein and a predetermined concentration of a test compound was shaken for 2 minutes, and it was then left at rest at room temperature for 13 minutes. Thereafter, 5 μl of Biotin-EDPDYEWPSA-NH2 (final concentration: 0.4 μM) serving as a substrate peptide and 5 μl of ATP (final concentration: 27 μM) were added to the reaction solution, and the obtained mixture was then shaken for 2 minutes. The reaction solution was further left at rest at room temperature for 40 minutes, so as to carry out an enzyme reaction.
Thereafter, 50 μl of a reaction termination solution [5 μg/ml Streptavidin, 0.18 μg/ml PT66-K, 30 mM HEPES (pH 7.0), 150 mM KF, 75 mM EDTA, 0.15% BSA, 0.075% Tween20], which contained Streptavidin-Xlent (Cisbio) and Mab PT66-K (Cisbio), was added to the reaction solution to terminate the enzyme reaction. At the same time, the reaction solution was left at rest at room temperature for 1 hour, so as to carry out an antigen-antibody reaction. Thereafter, using EnVision (PerkinElmer), the time-resolved fluorescence was measured at 615 nm and 665 nm, so that the phosphorylation of the substrate peptide was measured.
In addition, the following are standards for evaluating IC50 of Syk-inhibitory activity used in Table 21. • A: Up to 10 nM • B: 10 to 50 nM • C: 50 to 100 nM • D: 100 to 1000 nM The set of numbers (XYZ-xyz) given in each Example number column indicates the corresponding Example number (Example XYZ-xyz) in Table 21.

[1] abbreviates: Syk enzyme assay, Test Example 1, read-out: IC50 of Syk-inhibitory activity.
The mark [2] stands for this setting: read-out: Syk-inhibitory activity (IC50).

Read-outs that look alike come from different tables or passages of the source. Bounds are passed on as bounds.

As usually defined, the IC50 is the concentration needed to halve the response being measured. For `COc1cc(Nc2nc(NCC3CC3)c(F)cc2C(N)=O)cc(OC)c1` [Example 016-008], the 50% inhibitory concentration (IC50) under setting [1] fell in the range of 100 to 1000 nM. The same measure, in the same setting: the value for `Cc1ncc(Nc2nc(NC3CCCCC3N)c(F)cc2C(N)=O)cc1-n1cccn1` (centres unmarked) [Example 002-135] was 10 to 50 nM; that for `Cn1cc2cccc(Nc3nc(N[C@@H]4CCCC[C@@H]4N)c(F)cc3C(N)=O)c2n1` (relative stereo) [Example 006-074, 6-(cis-2-aminocyclohexylamino)-5-fluoro-2-((2-methyl-2H-indazol-7-yl)amino)nicotinamide] was 100 to 1000 nM; that for `NC(=O)c1cc(F)c(NC2CCCCC2N)nc1Nc1cncc(NC(=O)c2cc3ccccc3o2)c1` (centres unmarked) [Example 027-041] was less than 10 nM. With `CC(C)(CN)Nc1nc(Nc2ccc3ncccc3c2)c(C(N)=O)cc1F` [Example 014-012, 6-((1-amino-2-methylpropan-2-yl)amino)-5-fluoro-2-((quinolin-6-yl)amino)nicotinamide], the IC50 under setting [1] lay in the range of 50 to 100 nM. Same read-out and setting: under `NC(=O)c1cc(F)c(N[C@@H]2CCCC[C@@H]2N)nc1Nc1cncc(C(F)(F)F)c1` (relative stereo) [Example 004-098, 6-(cis-2-aminocyclohexylamino)-5-fluoro-2-((5-(trifluoromethyl)pyridin-3-yl)amino)-nicotinamide] stands 10 to 50 nM. Consider `Cc1cc(C)cc(Nc2nc(NCCN)c(F)cc2C(N)=O)c1` [Example 008-002], for which, under setting [1], the IC50 fell in the range of 10 to 50 nM. As for `CC(C)C[C@@H](Nc1nc(Nc2ccc3ncccc3c2)c(C(N)=O)cc1F)c1nnn[nH]1` [Example 012-026], under setting [1], the IC50 is 100 to 1000 nM. Regarding `Cc1ncc(Nc2nc(N[C@@H]3CCCC[C@@H]3N)c(F)cc2C(N)=O)cc1Cl` [Example 006-567, 6-(((1R,2S)-2-aminocyclohexyl)amino)-2-((5-chloro-6-methylpyridin-3-yl)amino)-5-fluoronicotinamide], under setting [1], the IC50 lay within 10 to 50 nM.

With `NC(=O)c1cc(F)c(N[C@@H]2CCCC[C@@H]2N)nc1Nc1ccc2c(cnn2CC2CC2)c1` (relative stereo) [Example 004-090, 6-(cis-2-aminocyclohexylamino)-2-((1-(cyclopropylmethyl)-1H-indazol-5-yl)amino)-5-fluoronicotinamide], the IC50 under setting [1] was 10 to 50 nM.

Consider `Cn1ccc2c(Nc3nc(N[C@@H]4CCCC[C@@H]4N)c(F)cc3C(N)=O)cc(C(F)(F)F)cc21` [Example 004-086], for which, under setting [1], the half-inhibitory concentration (IC50) was less than 10 nM. Regarding `CCCCOCCOc1ccc2cc(Nc3nc(NC4CCCCC4N)c(F)cc3C(N)=O)ccc2n1` (centres unmarked) [Example 002-108], the IC50 under setting [1] is 10 to 50 nM. Still for that read-out and setting: the value for `CCc1nn(CC)c2ccc(Nc3nc(N[C@H](CC(C)C)[C@H](C)N)c(F)cc3C(N)=O)cc12` [Example 006-540, 6-(((2S,3R)-2-amino-5-methylhexan-3-yl)amino)-2-((1,3-diethyl-1H-indazol-5-yl)amino)-5-fluoronicotinamide] was less than 10 nM.

For `COc1cc(Nc2nc(N3CC[C@@H](N)C3)c(F)cc2C(N)=O)cc(OC)c1` [Example 17, 6-((3R)-3-aminopyrrolidin-1-yl)-2-(3,5-dimethoxyphenylamino)-5-fluoronicotinamide], the IC50 under setting [2] is no more than 1000 nM. Take `COc1cc(Nc2nc(NCCc3cnc[nH]3)c(F)cc2C(N)=O)cc(OC)c1` [Example 016-011]: the IC50 under setting [1] was 100 to 1000 nM. Consider `NC(=O)c1cc(F)c(N[C@H](Cc2ccccc2)C(N)=O)nc1Nc1ccc2ncccc2c1` [Example 012-012], for which the IC50 under setting [1] lay in the range of 10 to 50 nM. For `NC(=O)c1cc(F)c(N[C@@H]2CCCC[C@@H]2N)nc1Nc1cnc(C2CC2)c(Cl)c1` [Example 006-569, 6-(((1R,2S)-2-aminocyclohexyl)amino)-2-((5-chloro-6-cyclopropylpyridin-3-yl)amino)-5-fluoronicotinamide], the IC50 under setting [1] lay within 10 to 50 nM. The same measure, in the same setting: the value for `NC(=O)c1cc(F)c(N[C@@H]2CCCC[C@@H]2N)nc1Nc1cncc(-c2cc(F)ccc2F)c1` (relative stereo) [Example 004-205, 6-(cis-2-aminocyclohexylamino)-2-((5-(2,5-difluorophenyl)pyridin-3-yl)amino)-5-fluoronicotinamide] was less than 10 nM; that for `COc1cc(Nc2nc(NC(C(N)=O)c3ccccc3)c(F)cc2C(N)=O)cc(OC)c1` (centres unmarked) [Example 016-009] was 10 to 50 nM; that for `CC[C@@H](Nc1nc(Nc2cnc(OC)c(-n3nccn3)c2)c(C(N)=O)cc1F)[C@H](C)N` [Example 006-273, 6-(((2S,3R)-2-aminopentan-3-yl)amino)-5-fluoro-2-((6-methoxy-5-(2H-1,2,3-triazol-2-yl)pyridin-3-yl)amino)nicotinamide] was 100 to 1000 nM. With `NC(=O)c1cc(F)c(NC[C@@H](N)c2cccnc2)nc1Nc1ccc2ncccc2c1` [Example 014-018, (S)-6-((2-amino-2-(pyridin-3-yl)ethyl)amino)-5-fluoro-2-((quinolin-6-yl)amino)nicotinamide], under setting [1], the IC50 was 10 to 50 nM. As to `NC(=O)c1cc(F)c(N[C@@H]2CCCC[C@@H]2N)nc1Nc1cncc(-c2cc(Cl)ccc2F)c1` (relative stereo) [Example 004-207, 6-(cis-2-aminocyclohexylamino)-2-((5-(5-chloro-2-fluorophenyl)pyridin-3-yl)amino)-5-fluoronicotinamide], the half-inhibitory concentration (IC50) under setting [1] was less than 10 nM. Consider `CNc1nc(Nc2cc(OC)cc(OC)c2)c(C(N)=O)cc1F` [Example 23, 2-(3,5-dimethoxyphenylamino)-5-fluoro-6-(methylamino)nicotinamide], for which the IC50 under setting [2] was no more than 1000 nM. As for `COCCOc1cccc2cc(Nc3nc(N[C@@H]4CCCC[C@@H]4N)c(F)cc3C(N)=O)cnc12` (relative stereo) [Example 004-121, 6-(cis-2-aminocyclohexylamino)-5-fluoro-2-((8-(2-methoxyethoxy)quinolin-3-yl)amino)-nicotinamide], the IC50 under setting [1] is less than 10 nM. On the same count and under the same terms, the value for `NC(=O)c1cc(F)c(NC2CCCCC2N)nc1Nc1cncc(NC(=O)c2ccccc2Cl)c1` (centres unmarked) [Example 027-007] was 10 to 50 nM; that for `NC[C@H](Nc1nc(Nc2ccc3cccnc3c2)c(C(N)=O)cc1F)c1ccccc1` [Example 006-134, (R)-6-((2-amino-1-phenylethyl)amino)-5-fluoro-2-(quinolin-7-ylamino)nicotinamide] was 10 to 50 nM; that for `NC(=O)c1cc(F)c(N[C@@H]2CCCC[C@@H]2N)nc1Nc1cc(O)c2ncccc2c1` (relative stereo) [Example 042-000] was less than 10 nM. `COc1cc(Nc2nc(N[C@@H](C(N)=O)C(C)(C)C)c(F)cc2C(N)=O)cc(OC)c1` [Example 033-005]: under setting [1], the IC50 was in the range of 100 to 1000 nM.

As for `Cc1ccccc1-c1cncc(Nc2nc(N[C@@H]3CCCC[C@@H]3N)c(F)cc2C(N)=O)c1` (relative stereo) [Example 004-101, 6-(cis-2-aminocyclohexylamino)-5-fluoro-2-((5-(2-methylphenyl)pyridin-3-yl)amino)-nicotinamide], the IC50 under setting [1] lay within 10 to 50 nM. Same read-out and setting: under `C[C@H](N)[C@@H](CC1CC1)Nc1nc(Nc2cccc3c2c(F)nn3CC(F)F)c(C(N)=O)cc1F` [Example 006-492, 6-(((2R,3S)-3-amino-1-cyclopropylbutan-2-yl)amino)-2-((1-(2,2-difluoroethyl)-3-fluoro-1H-indazol-4-yl)amino)-5-fluoronicotinamide] stands 10 to 50 nM.

Consider `CN(C)c1ccc(Nc2nc(NC3CCCCC3N)c(F)cc2C(N)=O)cn1` (centres unmarked) [Example 002-074], for which the IC50 under setting [1] lay within 50 to 100 nM. Still for that read-out and setting: under `NC(=O)c1cc(F)c(NC2CCCCC2N)nc1Nc1ccc2cnn(CC3CC3)c2c1` (centres unmarked) [Example 002-046] stands less than 10 nM.
